Laboratory results reported in patent publication US20060235013A1, “Tricyclic azole derivatives” (priority 2005, published 2006).
pIC50: −log10 of the molar value.

Legend:
Aurora A kinase = target: T1, Aurora A kinase (Homo sapiens, UniProt O14965); experiment: IC50 determination for inhibitors of Aurora A (ELISA-type kinase assay, GST-Histone H3 substrate); format: biochemical; details: mutant Aurora A kinase, 30 μM ATP, 40 minutes, read-out: IC50 Aurora A kinase inhibition
T1 sequence (O14965 1-403): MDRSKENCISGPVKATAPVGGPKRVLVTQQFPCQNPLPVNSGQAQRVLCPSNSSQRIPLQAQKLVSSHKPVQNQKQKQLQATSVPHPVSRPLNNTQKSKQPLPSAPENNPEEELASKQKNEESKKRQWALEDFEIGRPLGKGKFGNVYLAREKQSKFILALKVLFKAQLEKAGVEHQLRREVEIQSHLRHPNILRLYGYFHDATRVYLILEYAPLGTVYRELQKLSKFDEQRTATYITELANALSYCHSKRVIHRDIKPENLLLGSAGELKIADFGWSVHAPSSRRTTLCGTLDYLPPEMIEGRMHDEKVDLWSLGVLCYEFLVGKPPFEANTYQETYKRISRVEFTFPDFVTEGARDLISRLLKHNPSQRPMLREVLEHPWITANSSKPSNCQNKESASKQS
Description: IC50 Determination for Inhibitors of Aurora A
Aurora A is a serine threonine kinase involved in spindle assembly and chromosome segregation.
The assay is a typically ELISA-type assay where substrate (GST-Histone H3) is coupled to the assay-plate and is phosphorylated by the kinase. Phosphorylation is detected by a mouse anti-Phosphopeptid mAb and an HRP-labeled anti-mouse pAb. The assay is validated for IC50-determination.
Kinase activities were measured by Enzyme-Linked Immunosorbent Assay (ELISA): Maxisorp 384-well plates (Nunc) were coated with recombinant fusion protein comprising residues 1-15 of HistoneH3 fused to the N-terminus of Glutathione-S-Transferase. Plates were then blocked with a solution of 1 mg/mL I-block (a highly purified form of casein, Tropix cat. no. T2015) in phosphate-buffered saline. Kinase reactions were carried out in the wells of the ELISA plate by combining an appropriate amount of mutant Aurora A kinase with test compound and 30 μM ATP. The reaction buffer was 10× Kinase Buffer (Cell Signaling cat. no. 9802) supplemented with 1 μg/mL I-block. Reactions were stopped after 40 minutes by addition of 25 mM EDTA. After washing, substrate phosphorylation was detected by addition of anti-phospho-Histone H3 (Ser 10) 6G3 mAb (Cell Signaling cat. no. 9706) and sheep anti-mouse pAb-HRP (Amersham cat. no. NA931V), followed by colorimetric development with TMB (3,3′,5,5′-tetramethylbenzidine from Kirkegaard & Perry Laboratories). After readout of the adsorbance, IC50 values were calculated using a non-linear curve fit (XLfit software (ID Business Solution Ltd., Guilford, Surrey, UK)).

HCT 116 cells = experiment: Viability assay in HCT 116 cells (CellTiter-Glo Luminescent Cell Viability Assay); format: cell-based; details: HCT 116 human colon carcinoma cells, 5 days (120 h) incubation, ATP luminescence
Description: Viability Assay in HCT 116 Cells
A viability assay was performed using the CellTiter-Glo® Luminescent Cell Viability Assay (see Promega Corporation's Technical Bulletin No. 288, pp. 1-11 [revised February 2004] which is hereby incorporated by reference in its entirety). This assay is a homogeneous method of determining the number of viable cells in culture based on quantitation of the ATP present, an indicator of metabolically active cells. The assay is designed for use with multiwell formats, making it ideal for automated high-throughput screening (HTS), cell proliferation and cytotoxicity assays. The homogenous assay procedure involves adding a single reagent (containing luciferase, luciferan substrate, and buffer) directly to cells cultured in serum-supplemented medium. Cell washing, removal of medium and multiple pipetting steps are not required. The system detects as few as 15 cells/well in a 384-well format in 10 minutes after adding reagent and mixing.
The homogeneous “add-mix-measure” format results in cell lysis and generation of a luminescent signal proportional to the amount of ATP present. The amount of ATP is directly proportional to the number of cells present in culture. The above-referenced assay generates a “glow-type” luminescent signal, produced by the luciferase reaction, which has a half-life generally greater than five hours, depending on cell type and medium used. The extended half-life eliminates the need to use reagent injectors and provides flexibility for continuous or batch mode processing of multiple plates. The unique homogeneous format avoids errors that may be introduced by other ATP measurement methods that require multiple steps.
HCT 116 cells (human colon carcinoma, ATCC-No. CCl-247) were cultivated in RPMI 1640 medium with GlutaMAX™ I (cell culture media that contains L-Alanyl-L-Glutamine [a stabilized a form/source of L-Glutamine] from Invitrogen, Cat-No. 61870-010), 2.5% Fetal Calf Serum (FCS, Sigma Cat-No. F4135 (FBS)); 100 Units/ml penicillin/100 μg/ml streptomycin (=Pen/Strep from Invitrogen Cat. No. 15140). For the assay the cells were seeded in 384 well plates, 1000 cells per well, in the same medium. The next day the test compounds were added in various concentrations ranging from 30 μM to 0.0015 μM (10 concentrations, 1:3 diluted). After 5 days the viability assay was done according to the instructions of the manufacturer. In brief: the cell-plate was equilibrated to room temperature for approximately 30 minutes and then reagent (containing luciferase, luciferan substrate, and buffer) was added. The contents were carefully mixed for 15 minutes to induce cell lysis. After 45 minutes the luminescent signal was measured in Victor 2, (scanning multiwell spectrophotometer, Wallac).
Medium: RPMI 1640 with cell culture media containing L-Alanyl-L-Glutamine [GlutaMAX™ I (Invitrogen, Cat-No. 61870)], 5% FCS (Sigma Cat.-No. F4135), Pen/Strep (Invitrogen, Cat No. 15140).
HCT116 (ATCC-No. CCl-247): 1000 cells in 60 μl per well of 384 well plate (Greiner 781098, μClear-plate white)
After seeding incubate plates 24 h at 37° C., 5% CO2
2nd. Day: Induction (Treatment with Compounds, 10 Concentrations):
In order to achieve a final concentration of 30 μM as highest concentration 3.5 μl of 10 mM compound stock solution were added directly to 163 μl media. Then step (d) of the dilution procedure described below, was followed.
In order to achieve the second highest to the lowest concentrations, a serial dilution with dilution steps of 1:3 was followed according to the procedure (a-d) as described here below:
(a) for the second highest concentration add 10 μl of 10 mM stock solution of compound to 20 μl dimethylsulfoxide (DMSO)
(b) dilute 8×1:3 (always 10 μl to 20 μl DMSO) in this DMSO dilution row (results in 9 wells with concentrations from 3333.3 μM to 0.51 μM)
(c) dilute each concentration 1: 47.6 (3.5 μl compound dilution to 163 μl media)
(d) add 10 μl of every concentration to 60 μl media in the cell plate […]

SMILES	pIC50 (Aurora A kinase)	pIC50 (HCT 116 cells)
CCN1C(=O)C(C)(C)c2cc3nc(-c4n[nH]c5c4CN(S(=O)(=O)c4ccc(F)cc4)CC5)[nH]c3cc21 [Example 17, 5-Ethyl-2-[5-(4-fluoro-benzenesulfonyl)-4,5,6,7-tetrahydro-1H-pyrazolo[4,3-c]pyridin-3-yl]-7,7-dimethyl-5,7-dihydro-3H-imidazo[4,5-f]indol-6-one]	7.85	5.70 to 7.00
CC(C)N1C(=O)C(C)(C)c2cc3nc(-c4n[nH]c5c4CCC5)[nH]c3cc21 [Example 5, 5-Isopropyl-7,7-dimethyl-2-(1,4,5,6-tetrahydro-cyclopentapyrazol-3-yl)-5,7-dihydro-3H-imidazo[4,5-f]indol-6-one]	7.77	–
CCN1C(=O)C(C)(C)c2cc3nc(-c4n[nH]c5c4COCC5)[nH]c3cc21 [Example 11, 5-Ethyl-7,7-dimethyl-2-(1,4,6,7-tetrahydro-pyrano[4,3-c]pyrazol-3-yl)-5,7-dihydro-3H-imidazo[4,5-f]indol-6-one]	7.80	5.70 to 7.00
CCN1C(=O)C(C)(C)c2cc3nc(-c4n[nH]c5c4CN(C(=O)c4ccc(F)cc4)CC5)[nH]c3cc21 [Example 16, 5-Ethyl-2-[5-(4-fluoro-benzoyl)-4,5,6,7-tetrahydro-1H-pyrazolo[4,3-c]pyridin-3-yl]-7,7-dimethyl-5,7-dihydro-3H-imidazo[4,5-f]indol-6-one]	7.26	5.70 to 7.00
CCc1cccc(CC)c1NC(=O)N1Cc2[nH]nc(-c3nc4cc5c(cc4[nH]3)N(C(C)C)C(=O)C5(C)C)c2C1 [Example 21, 3-(5-Isopropyl-7,7-dimethyl-6-oxo-3,5,6,7-tetrahydro-imidazo[4,5-f]indol-2-yl)-4,6-dihydro-1H-pyrrolo[3,4-c]pyrazole-5-carboxylic acid (2,6-diethyl-phenyl)-amide]	–	5.70 to 7.00

Results, then the compound that gave them:

pIC50 (Aurora A kinase)	pIC50 (HCT 116 cells)	SMILES
–	6.47	CC(C)N1C(=O)C(C)(C)c2cc3nc(-c4n[nH]c5c4CSC5)[nH]c3cc21 [Example 28, 2-(4,6-Dihydro-1H-thieno[3,4-c]pyrazol-3-yl)-5-isopropyl-7,7-dimethyl-5,7-dihydro-3H-imidazo[4,5-f]indol-6-one]
–	6.37	CN1C(=O)C(C)(C)c2cc3nc(-c4n[nH]c5c4CCC5)[nH]c3cc21 [Example 2, 5,7,7-Trimethyl-2-(1,4,5,6-tetrahydro-cyclopentapyrazol-3-yl)-5,7-dihydro-3H-imidazo[4,5-f]indol-6-one]
7.92	6.97	CC(C)N1C(=O)C(C)(C)c2cc3nc(-c4n[nH]c5c4CCCC5)[nH]c3cc21 [Example 9, 5-Isopropyl-7,7-dimethyl-2-(4,5,6,7-tetrahydro-1H-indazol-3-yl)-5,7-dihydro-3H-imidazo[4,5-f]indol-6-one]
–	6.65	CCCN1C(=O)C(C)(C)c2cc3nc(-c4n[nH]c5c4CCC5)[nH]c3cc21 [Example 4, 7,7-Dimethyl-5-propyl-2-(1,4,5,6-tetrahydro-cyclopentapyrazol-3-yl)-5,7-dihydro-3H-imidazo[4,5-f]indol-6-one]
